Measured values reported in EP0007672A1, “Isocyanoalkenes, process and useful intermediates for their preparation, pharmaceutical and fungicidal preparations containing those isocyanoalkenes and the use of the fungicidal preparations in agriculture” (GIST-BROCADES N.V., priority 1978, dated 1980).
Values after ≈ are worked out from the molar mass of the structure shown. Where two headings read alike, the source gives them in different places.

Columns and labels:
Experiment in all cases: MIC (Minimum Inhibitory Concentration)
Format in all cases: cell-based
[1] = tested on: Candida albicans
[2] = tested on: Pasteurella multocida; conditions: read-out: MIC values
[3] = tested on: Trichophyton equinum
[4] = tested on: Trichophyton mentagrophytus
[5] = tested on: Trichophyton quickeaneum; conditions: Trichophyton quickeaneum A 2040; read-out: MIC values
[6] = tested on: Trichophyton rubrum
[7] = tested on: Trichophyton schoenleinii; conditions: Trichophyton schoenleinii 435-63; read-out: MIC values
[8] = tested on: Trichophyton soudanese joyeux; conditions: Trichophyton soudanese joyeux 440-63; read-out: MIC values
[9] = tested on: Trichophyton tonsurans; conditions: Trichophyton tonsurans 561-50; read-out: MIC values
[10] = tested on: Trichophyton verrucosum
[11] = tested on: Trichophyton violoceum; conditions: Trichophyton violoceum 442-62; read-out: MIC values
[12] = Trichophyton equinum 182-76, read-out: MIC values
[13] = Trichophyton equinum 856-71, read-out: MIC values
[14] = Trichophyton mentagrophytus 367-68, read-out: MIC values
[15] = Trichophyton mentagrophytus 421-67, read-out: MIC values
[16] = Trichophyton mentagrophytus A 3252, read-out: MIC values
[17] = Trichophyton mentagrophytus R 177, read-out: MIC values
[18] = Trichophyton mentagrophytus R 178, read-out: MIC values
[19] = Trichophyton mentagrophytus RRL 305, read-out: MIC values
[20] = Trichophyton rubrum 218-65, read-out: MIC values
[21] = Trichophyton rubrum 494-62, read-out: MIC values
[22] = Trichophyton rubrum A 810, read-out: MIC values
[23] = Trichophyton verrucosum 134-66, read-out: MIC values
[24] = Trichophyton verrucosum A 2922, read-out: MIC values

SMILES	MIC [3, 12]	MIC [3, 13]	MIC [4, 14]	MIC [4, 15]	MIC [4, 16]	MIC [4, 17]	MIC [4, 18]	MIC [4, 19]	MIC [5]	MIC [6, 20]	MIC [6, 21]	MIC [6, 22]	MIC [7]	MIC [8]	MIC [9]	MIC [10, 23]	MIC [10, 24]	MIC [11]	also measured
[C-]#[N+]C(C(C)=CC)S(=O)(=O)c1ccc(C)cc1 (stereo not drawn) [Example 27b, 1-isocyano-2-methyl-l-(4-toluenesulphonyl)-2-butene]	0.8 µg/mL (≈ 3.21 µM)	0.4 µg/mL (≈ 1.6 µM)	3 µg/mL (≈ 12 µM)	3 µg/mL (≈ 12 µM)	3 µg/mL (≈ 12 µM)	6 µg/mL (≈ 24.1 µM)	6 µg/mL (≈ 24.1 µM)	3 µg/mL (≈ 12 µM)	1.5 µg/mL (≈ 6.02 µM)	1.5 µg/mL (≈ 6.02 µM)	0.8 µg/mL (≈ 3.21 µM)	0.8 µg/mL (≈ 3.21 µM)	6 µg/mL (≈ 24.1 µM)	6 µg/mL (≈ 24.1 µM)	3 µg/mL (≈ 12 µM)	1.5 µg/mL (≈ 6.02 µM)	6 µg/mL (≈ 24.1 µM)	6 µg/mL (≈ 24.1 µM)	MIC ([1]; Candida albicans A 7, read-out: MIC values): 0.4 µg/mL (≈ 1.6 µM); MIC ([1]; Candida albicans A 3140, read-out: MIC values): 0.8 µg/mL (≈ 3.21 µM); MIC ([1]; Candida albicans A 3141, read-out: MIC values): < 0.05 µg/mL; MIC ([1]; Candida albicans A 3144, read-out: MIC values): 0.4 µg/mL (≈ 1.6 µM); MIC ([1]; Candida albicans A 3145, read-out: MIC values): < 0.05 µg/mL; MIC ([1]; Candida albicans A 3165, read-out: MIC values): 1.5 µg/mL (≈ 6.02 µM); MIC ([1]; Candida albicans A 3166, read-out: MIC values): 3 µg/mL (≈ 12 µM); MIC ([1]; Candida albicans A 3167, read-out: MIC values): 0.4 µg/mL (≈ 1.6 µM); MIC ([1]; Candida albicans A 3168, read-out: MIC values): 0.4 µg/mL (≈ 1.6 µM); MIC ([1]; Candida albicans A 3169, read-out: MIC values): 0.4 µg/mL (≈ 1.6 µM); MIC ([1]; Candida albicans A 3171, read-out: MIC values): 0.4 µg/mL (≈ 1.6 µM); MIC ([1]; Candida albicans A 3190, read-out: MIC values): 0.1 µg/mL (≈ 0.401 µM); MIC ([1]; Candida albicans A 3191, read-out: MIC values): 0.2 µg/mL (≈ 0.802 µM); MIC ([1]; Candida albicans A 3194, read-out: MIC values): 0.4 µg/mL (≈ 1.6 µM); MIC ([1]; Candida albicans A 3196, read-out: MIC values): 0.4 µg/mL (≈ 1.6 µM); MIC ([2]; Pasteurella multocida A 723): 3 µg/mL (≈ 12 µM)
Clc1ccc(COC(Cn2ccnc2)c2ccc(Cl)cc2Cl)c(Cl)c1 (stereo not drawn) [miconazole, reference compound]	0.4 µg/mL (≈ 0.961 µM)	< 0.05 µg/mL	3 µg/mL (≈ 7.21 µM)	0.2 µg/mL (≈ 0.481 µM)	0.4 µg/mL (≈ 0.961 µM)	0.4 µg/mL (≈ 0.961 µM)	25 µg/mL (≈ 60.1 µM)	0.4 µg/mL (≈ 0.961 µM)	0.1 µg/mL (≈ 0.24 µM)	0.1 µg/mL (≈ 0.24 µM)	0.8 µg/mL (≈ 1.92 µM)	0.8 µg/mL (≈ 1.92 µM)	0.2 µg/mL (≈ 0.481 µM)	1.5 µg/mL (≈ 3.6 µM)	0.1 µg/mL (≈ 0.24 µM)	0.8 µg/mL (≈ 1.92 µM)	0.8 µg/mL (≈ 1.92 µM)	0.8 µg/mL (≈ 1.92 µM)	MIC ([1]; read-out: MIC values, Candida albicans A 7): 0.2 µg/mL (≈ 0.481 µM); MIC ([1]; read-out: MIC values, Candida albicans A 3140): 0.1 µg/mL (≈ 0.24 µM); MIC ([1]; read-out: MIC values, Candida albicans A 3141): < 0.05 µg/mL; MIC ([1]; read-out: MIC values, Candida albicans A 3144): 0.8 µg/mL (≈ 1.92 µM); MIC ([1]; read-out: MIC values, Candida albicans A 3145): < 0.05 µg/mL; MIC ([1]; read-out: MIC values, Candida albicans A 3165): 0.2 µg/mL (≈ 0.481 µM); MIC ([1]; read-out: MIC values, Candida albicans A 3167): < 0.05 µg/mL; MIC ([1]; read-out: MIC values, Candida albicans A 3168): 100 µg/mL (≈ 240 µM); MIC ([1]; read-out: MIC values, Candida albicans A 3169): 1.5 µg/mL (≈ 3.6 µM); MIC ([1]; read-out: MIC values, Candida albicans A 3171): < 0.05 µg/mL; MIC ([1]; read-out: MIC values, Candida albicans A 3190): < 0.05 µg/mL; MIC ([1]; read-out: MIC values, Candida albicans A 3191): < 0.05 µg/mL; MIC ([1]; read-out: MIC values, Candida albicans A 3194): 0.2 µg/mL (≈ 0.481 µM); MIC ([2]; Pasteurella multocida): > 100 µg/mL
